Results: DBAASP
Converted amounts (≈) assume the structure as drawn. One block for each compound: values may come before it.

Experiments:
Test in all cases: ≥ marks a high value that may be exact or a test limit, other limits are often not marked, values filed in µg/mL are converted to µM
[1] = test system: Acinetobacter baumannii ATCC 17978
[2] = test system: Acinetobacter baumannii AYE
[3] = test system: Bacillus subtilis
[4] = test system: Candida glabrata NCPF 8018
[5] = test system: Candida krusei NCPF 3876
[6] = test system: Candida parapsilosis NCPF 3209
[7] = test system: Candida tropicalis NCPF 8760
[8] = test system: Escherichia coli ATCC 25922
[9] = test system: Escherichia coli LEC001
[10] = test system: Escherichia coli NCTC 12923
[11] = test system: Klebsiella pneumoniae M6
[12] = test system: Klebsiella pneumoniae NCTC 13368
[13] = test system: Pseudomonas aeruginosa NCTC 13437
[14] = test system: Pseudomonas aeruginosa PAO1
[15] = test system: Staphylococcus aureus ATCC 25923
[16] = test system: Staphylococcus aureus ATCC 9144
[17] = test system: Staphylococcus aureus NCTC 13616
[18] = test system: Staphylococcus aureus USA 300
[19] = test system: Staphylococcus aureus
[20] = test system: Enterobacter cloacae 218R
[21] = test system: Enterococcus faecalis ATCC 29212
[22] = test system: Enterococcus faecalis W61950
[23] = test system: Enterococcus faecalis f43559
[24] = test system: Enterococcus faecium mic80
[25] = test system: Enterococcus faecium t62764
[26] = test system: Escherichia coli ESBL 63103
[27] = test system: Escherichia coli ESBL 64771
[28] = test system: Klebsiella pneumoniae ESBL 61962
[29] = test system: Klebsiella pneumoniae ESBL 63575
[30] = test system: Pseudomonas aeruginosa 198
[31] = test system: Pseudomonas aeruginosa 213
[32] = test system: Pseudomonas aeruginosa 9
[33] = test system: Pseudomonas aeruginosa H1027
[34] = test system: Pseudomonas aeruginosa H1030
[35] = test system: Pseudomonas aeruginosa LES400
[36] = test system: Pseudomonas aeruginosa PAO1 H103
[37] = test system: Staphylococcus aureus C623
[38] = test system: Stenotrophomonas maltophilia ATCC 13637
[39] = test system: Bacillus subtilis ATCC 23631
[40] = test system: Erwinia amylovora PMV 6076
[41] = test system: Pseudomonas aeruginosa ATCC 27553
[42] = test system: Pseudomonas syringae pv. actinidiae Psa3700.1.1
[43] = test system: Pseudomonas syringae pv. syringae EPS 94
[44] = test system: Salmonella typhimurium ATCC 50013
[45] = test system: Shigella dysenteriae ATCC 51302
[46] = test system: Streptococcus pneumoniae ATCC 49619
[47] = test system: Xanthomonas arboricola pv. pruni CFBP 5563
[48] = test system: Xanthomonas campestris pv. Vesicatoria 2133-2
[49] = test system: Xanthomonas fragariae Xf349-9A
[50] = test system: Bacillus subtilis ATCC 6633
[51] = test system: Candida albicans 01U
[52] = test system: Candida albicans 38U
[53] = test system: Candida parapsilosis ATCC 22019
[54] = test system: Cryptococcus neoformans L26
[55] = test system: Cryptococcus neoformans L30
[56] = test system: Enterococcus faecalis ATCC 12953
[57] = test system: Escherichia coli ATCC 8739
[58] = test system: Klebsiella pneumoniae ATCC 13885
[59] = test system: Proteus mirabilis ATCC 25933
[60] = test system: Pseudomonas aeruginosa ATCC 15442
[61] = test system: Salmonella enterica subsp. enterica serovar Typhimurium ATCC 14028
[62] = test system: Staphylococcus aureus ATCC 29213
[63] = test system: Streptococcus pyogenes ATCC 19615
[64] = test system: Trichophyton mentagrophytes
[65] = test system: Trichophyton rubrum

- MIC [1]: ≥ 121 µM
- MIC [2]: ≥ 121 µM
- MIC [3]: 13.7 µM (≈ 14.4 µg/mL)
- MIC [4]: ≥ 121 µM
- MIC [5]: ≥ 121 µM
- MIC [6]: ≥ 121 µM
- MIC [7]: ≥ 121 µM
- MIC [8]: 22.4 µM (≈ 23.6 µg/mL)
- MIC [9]: ≥ 121 µM
- MIC [10]: ≥ 121 µM
- MIC [11]: ≥ 121 µM
- MIC [12]: ≥ 121 µM
- MIC [13]: ≥ 121 µM
- MIC [14]: > 121 µM
- MIC [15]: 8.25 µM (≈ 8.69 µg/mL)
- MIC [16]: ≥ 121 µM
- MIC [17]: ≥ 121 µM
- MIC [18]: ≥ 121 µM
- MIC [19]: 64.3 µM (≈ 67.7 µg/mL)
Structure (SMILES): CC[C@H](C)[C@H](NC(=O)[C@@H](N)CCCCN)C(=O)N[C@@H](C)C(=O)N[C@@H](CCCCN)C(=O)N[C@H](C(=O)N[C@@H](C)C(=O)N[C@@H](CC(C)C)C(=O)N[C@@H](CCCCN)C(=O)N[C@@H](C)C(=O)N[C@@H](CC(C)C)C(N)=O)C(C)C [KIAKVALKAL]

- MIC [20]: ≥ 226 µM
- MIC [21]: > 226 µM
- MIC [22]: ≥ 226 µM
- MIC [23]: ≥ 226 µM
- MIC [24]: ≥ 226 µM
- MIC [25]: ≥ 226 µM
- MIC [26]: ≥ 226 µM
- MIC [27]: ≥ 226 µM
- MIC [28]: ≥ 226 µM
- MIC [29]: ≥ 226 µM
- MIC [30]: ≥ 226 µM
- MIC [31]: ≥ 226 µM
- MIC [32]: ≥ 226 µM
- MIC [33]: ≥ 226 µM
- MIC [34]: ≥ 226 µM
- MIC [35]: ≥ 226 µM
- MIC [36]: ≥ 226 µM
- MIC [15]: > 226 µM
- MIC [37]: ≥ 226 µM
- MIC [38]: ≥ 226 µM
Structure (SMILES): CC[C@H](C)[C@H](NC(=O)[C@H](CCCN=C(N)N)NC(=O)[C@@H](N)CCCCN)C(=O)N[C@@H](CCSC)C(=O)N[C@@H](CCCCN)C(=O)N[C@@H](CC(C)C)C(=O)N[C@@H](CCCCN)C(=O)N[C@@H](CCSC)C(=O)N[C@@H](CCCN=C(N)N)C(=O)O [KRIMKLKMR]

- MIC [39]: 29.8 µM (≈ 24 µg/mL)
- MIC [40]: ≥ 50 µM
- MIC [41]: ≥ 79.6 µM
- MIC [42]: ≥ 50 µM
- MIC [43]: ≥ 50 µM
- MIC [44]: ≥ 59.7 µM
- MIC [45]: ≥ 59.7 µM
- MIC [15]: 49.7 µM (≈ 40 µg/mL)
- MIC [46]: ≥ 69.6 µM
- MIC [47]: ≥ 50 µM
- MIC [48]: ≥ 50 µM
- MIC [49]: ≥ 50 µM
Structure (SMILES): CC(C)C[C@H](NC(=O)CNC(=O)[C@H](CC(C)C)NC(=O)[C@H](Cc1ccccc1)NC(=O)[C@@H](NC(=O)[C@@H](N)CCCCN)C(C)C)C(=O)N[C@@H](CCCCN)C(=O)O [KVFLGLK]

- MIC [50]: ≥ 36 µM
- MIC [51]: 18 µM (≈ 15.8 µg/mL)
- MIC [52]: 18 µM (≈ 15.8 µg/mL)
- MIC [53]: ≥ 144 µM
- MIC [54]: ≥ 144 µM
- MIC [55]: ≥ 144 µM
- MIC [56]: ≥ 36 µM
- MIC [40]: ≥ 50 µM
- MIC [57]: 18 µM (≈ 15.8 µg/mL)
- MIC [58]: 9 µM (≈ 7.88 µg/mL)
- MIC [59]: 18 µM (≈ 15.8 µg/mL)
- MIC [60]: 9 µM (≈ 7.88 µg/mL)
- MIC [42]: ≥ 50 µM
- MIC [43]: ≥ 50 µM
- MIC [61]: 18 µM (≈ 15.8 µg/mL)
- MIC [62]: 18 µM (≈ 15.8 µg/mL)
- MIC [63]: ≥ 36 µM
- MIC [64]: 18 µM (≈ 15.8 µg/mL)
- MIC [65]: 18 µM (≈ 15.8 µg/mL)
- MIC [47]: ≥ 50 µM
- MIC [48]: ≥ 50 µM
- MIC [49]: ≥ 50 µM
Structure (SMILES): CSCC[C@H](NC(=O)CNC(=O)[C@H](CCC(N)=O)NC(=O)[C@H](C)NC(=O)[C@H](CCCN=C(N)N)NC(=O)CNC(=O)[C@H](C)NC(=O)[C@@H](NC(=O)[C@@H](N)CO)C(C)C)C(N)=O [SVAGRAQGM]
